Measurements published in US20230085307A1, “PYRIDAZINONE COMPOUND AND HERBICIDE” (NISSAN CHEMICAL CORPORATION, priority 2019, published 2023).

Legend:
lambsquarters [1] = assay: Test Example 4: herbicidal effect by soil treatment (Table 19, symbol O); format: in vivo, lambsquarters (Chenopodium album); details: AAH 320 g/ha
Procedure, shortened: (§1)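 Step 1: sow seeds in sterilized diluvial soil, cover ~1.5 cm. Step 2: spray diluted emulsion onto soil surface at predetermined rate. Step 3: greenhouse, 25–30° C, three weeks. Step 4: grade effect on each plant by earlier criteria.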

southern crabgrass [2] = assay: Test Example 4: herbicidal effect by soil treatment (Table 19, symbol F); format: in vivo, southern crabgrass (Digitaria ciliaris); details: AAH 320 g/ha
Procedure, shortened: as §1

barnyard grass [3] = assay: Test Example 5: herbicidal effect by foliage application, plastic box (Table 20, symbol H); format: in vivo, barnyard grass (Echinochloa crus-galli); details: foliage application, AAH 320 g/ha, three weeks after application
Procedure, shortened: (§2)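 Foliar spray test: emulsion formulation diluted in water to a set application rate, sprayed onto 14-day-old plants raised in diluvial soil at 25° C to 30° C under glass. Both herbicidal effect and crop effect rated visually three weeks later.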

Italian ryegrass [4] = assay: Test Example 5: herbicidal effect by foliage application, plastic box (Table 20, symbol K); format: in vivo, Italian ryegrass (Lolium multiflorum); details: foliage application, AAH 320 g/ha, three weeks after application
Procedure, shortened: as §2

persian speedwell [5] = assay: Test Example 4: herbicidal effect by soil treatment (Table 19, symbol R); format: in vivo, Persian speedwell (Veronica persica); details: AAH 320 g/ha
Procedure, shortened: as §1

false cleavers = assay: Test Example 4: herbicidal effect by soil treatment (Table 19, symbol Q); format: in vivo, false cleavers (Galium spurium); details: AAH 320 g/ha
Procedure, shortened: as §1

windgrass [6] = assay: Test Example 4: herbicidal effect by soil treatment (Table 19, symbol L); format: in vivo, windgrass (Apera spica-venti); details: AAH 320 g/ha
Procedure, shortened: as §1

redroot pigweed [7] = assay: Test Example 5: herbicidal effect by foliage application, plastic box (Table 20, symbol N); format: in vivo, redroot pigweed (Amaranthus retroflexus); details: foliage application, AAH 320 g/ha, three weeks after application
Procedure, shortened: as §2

persian speedwell [8] = assay: Test Example 5: herbicidal effect by foliage application, plastic box (Table 20, symbol R); format: in vivo, Persian speedwell (Veronica persica); details: foliage application, AAH 320 g/ha, three weeks after application
Procedure, shortened: as §2

redroot pigweed [9] = assay: Test Example 4: herbicidal effect by soil treatment (Table 19, symbol N); format: in vivo, redroot pigweed (Amaranthus retroflexus); details: AAH 320 g/ha
Procedure, shortened: as §1

southern crabgrass [10] = assay: Test Example 5: herbicidal effect by foliage application, plastic box (Table 20, symbol F); format: in vivo, southern crabgrass (Digitaria ciliaris); details: foliage application, AAH 320 g/ha, three weeks after application
Procedure, shortened: as §2

Italian ryegrass [11] = assay: Test Example 4: herbicidal effect by soil treatment (Table 19, symbol K); format: in vivo, Italian ryegrass (Lolium multiflorum); details: AAH 320 g/ha
Procedure, shortened: as §1

barnyard grass [12] = assay: Test Example 3: herbicidal effect by foliage application, Wagner pot (Table 18, symbol H); format: in vivo, barnyard grass (Echinochloa crus-galli); details: 320 g/ha
Procedure, shortened: (§3)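 Plants were sown in alluvial soil held under 0.1–0.5 cm standing water and grown 14 days in a greenhouse at 25–30 °C. An emulsifiable formulation, water-diluted to the set dose, was then sprayed onto the foliage, and effects were scored three weeks later using previously defined criteria.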

blackgrass [13] = assay: Test Example 4: herbicidal effect by soil treatment (Table 19, symbol J); format: in vivo, blackgrass (Alopecurus myosuroides); details: AAH 320 g/ha
Procedure, shortened: as §1

wild oat [14] = assay: Test Example 5: herbicidal effect by foliage application, plastic box (Table 20, symbol I); format: in vivo, wild oat (Avena fatua); details: foliage application, AAH 320 g/ha, three weeks after application
Procedure, shortened: as §2

chickweed [15] = assay: Test Example 5: herbicidal effect by foliage application, plastic box (Table 20, symbol P); format: in vivo, common chickweed (Stellaria media); details: foliage application, AAH 320 g/ha, three weeks after application
Procedure, shortened: as §2

barnyard grass [16] = assay: Test Example 4: herbicidal effect by soil treatment (Table 19, symbol H); format: in vivo, barnyard grass (Echinochloa crus-galli); details: AAH 320 g/ha
Procedure, shortened: as §1

green foxtail [17] = assay: Test Example 5: herbicidal effect by foliage application, plastic box (Table 20, symbol G); format: in vivo, green foxtail (Setaria viridis); details: foliage application, AAH 320 g/ha, three weeks after application
Procedure, shortened: as §2

green foxtail [18] = assay: Test Example 4: herbicidal effect by soil treatment (Table 19, symbol G); format: in vivo, green foxtail (Setaria viridis); details: AAH 320 g/ha
Procedure, shortened: as §1

windgrass [19] = assay: Test Example 5: herbicidal effect by foliage application, plastic box (Table 20, symbol L); format: in vivo, windgrass (Apera spica-venti); details: foliage application, AAH 320 g/ha, three weeks after application
Procedure, shortened: as §2

wild oat [20] = assay: Test Example 4: herbicidal effect by soil treatment (Table 19, symbol I); format: in vivo, wild oat (Avena fatua); details: AAH 320 g/ha
Procedure, shortened: as §1

velvetleaf [21] = assay: Test Example 4: herbicidal effect by soil treatment (Table 19, symbol M); format: in vivo, velvetleaf (Abutilon theophrasti); details: AAH 320 g/ha
Procedure, shortened: as §1

rice flat sedge = assay: Test Example 3: herbicidal effect by foliage application, Wagner pot (Table 18, symbol E); format: in vivo, rice flat sedge (Cyperus iria); details: 320 g/ha
Procedure, shortened: as §3

velvetleaf [22] = assay: Test Example 5: herbicidal effect by foliage application, plastic box (Table 20, symbol M); format: in vivo, velvetleaf (Abutilon theophrasti); details: foliage application, AAH 320 g/ha, three weeks after application
Procedure, shortened: as §2

blackgrass [23] = assay: Test Example 5: herbicidal effect by foliage application, plastic box (Table 20, symbol J); format: in vivo, blackgrass (Alopecurus myosuroides); details: foliage application, AAH 320 g/ha, three weeks after application
Procedure, shortened: as §2

chickweed [24] = assay: Test Example 4: herbicidal effect by soil treatment (Table 19, symbol P); format: in vivo, common chickweed (Stellaria media); details: AAH 320 g/ha
Procedure, shortened: as §1

Chinese sprangletop = assay: Test Example 3: herbicidal effect by foliage application, Wagner pot (Table 18, symbol D); format: in vivo, chinese sprangletop (Leptochloa chinensis); details: 320 g/ha
Procedure, shortened: as §3

lambsquarters [25] = assay: Test Example 5: herbicidal effect by foliage application, plastic box (Table 20, symbol O); format: in vivo, lambsquarters (Chenopodium album); details: foliage application, AAH 320 g/ha, three weeks after application
Procedure, shortened: as §2

CCCC(=O)Oc1c(OC)nn(C)c(=O)c1-c1c(-c2ccc([N+](=O)[O-])cc2)sc2ccccc12 [1-169]
O: lambsquarters, herbicidal effect rating (lambsquarters [1]): 0 (Herbicidal rate of 5% or less (almost no effect))
F: southern crabgrass, herbicidal effect rating (southern crabgrass [2]): 0 (Herbicidal rate of 5% or less (almost no effect))
H: barnyard grass, herbicidal effect (barnyard grass [3]): 0 (Herbicidal rate of 5% or less (almost no effect))
K: Italian ryegrass, herbicidal effect (Italian ryegrass [4]): 0 (Herbicidal rate of 5% or less (almost no effect))
R: persian speedwell, herbicidal effect rating (persian speedwell [5]): 3 (Herbicidal rate of 40% or more and less than 70%)
Q: false cleavers, herbicidal effect rating (false cleavers): 0 (Herbicidal rate of 5% or less (almost no effect))
L: windgrass, herbicidal effect rating (windgrass [6]): 0 (Herbicidal rate of 5% or less (almost no effect))
N: redroot pigweed, herbicidal effect (redroot pigweed [7]): 4 (Herbicidal rate of 70% or more and less than 90%)
R: persian speedwell, herbicidal effect (persian speedwell [8]): 4 (Herbicidal rate of 70% or more and less than 90%)
N: redroot pigweed, herbicidal effect rating (redroot pigweed [9]): 0 (Herbicidal rate of 5% or less (almost no effect))
F: southern crabgrass, herbicidal effect (southern crabgrass [10]): 0 (Herbicidal rate of 5% or less (almost no effect))
K: Italian ryegrass, herbicidal effect rating (Italian ryegrass [11]): 0 (Herbicidal rate of 5% or less (almost no effect))
herbicidal effect on H (barnyard grass), rating 0-5 (barnyard grass [12]): 1 (Herbicidal rate of 5% or more and less than 20%)
J: blackgrass, herbicidal effect rating (blackgrass [13]): 0 (Herbicidal rate of 5% or less (almost no effect))
I: wild oat, herbicidal effect (wild oat [14]): 0 (Herbicidal rate of 5% or less (almost no effect))
P: chickweed, herbicidal effect (chickweed [15]): 4 (Herbicidal rate of 70% or more and less than 90%)
H: barnyard grass, herbicidal effect rating (barnyard grass [16]): 0 (Herbicidal rate of 5% or less (almost no effect))
G: green foxtail, herbicidal effect (green foxtail [17]): 0 (Herbicidal rate of 5% or less (almost no effect))
G: green foxtail, herbicidal effect rating (green foxtail [18]): 0 (Herbicidal rate of 5% or less (almost no effect))
L: windgrass, herbicidal effect (windgrass [19]): 0 (Herbicidal rate of 5% or less (almost no effect))
I: wild oat, herbicidal effect rating (wild oat [20]): 0 (Herbicidal rate of 5% or less (almost no effect))
M: velvetleaf, herbicidal effect rating (velvetleaf [21]): 0 (Herbicidal rate of 5% or less (almost no effect))
herbicidal effect on E (rice flat sedge), rating 0-5 (rice flat sedge): 2 (Herbicidal rate of 20% or more and less than 40%)
M: velvetleaf, herbicidal effect (velvetleaf [22]): 0 (Herbicidal rate of 5% or less (almost no effect))
J: blackgrass, herbicidal effect (blackgrass [23]): 0 (Herbicidal rate of 5% or less (almost no effect))
P: chickweed, herbicidal effect rating (chickweed [24]): 1 (Herbicidal rate of 5% or more and less than 20%)
herbicidal effect on D (Chinese sprangletop), rating 0-5 (Chinese sprangletop): 0 (Herbicidal rate of 5% or less (almost no effect))
O: lambsquarters, herbicidal effect (lambsquarters [25]): 4 (Herbicidal rate of 70% or more and less than 90%)
